Laboratory results as given in patent US7989495B2, “Compositions and methods for inhibiting NF-κB mediated tumorigenicity and adhesion dependent survival of cancer cells” (University of Utah Research Foundation, priority 2002, dated 2011).
“Also recorded” adds a separate entry of the source.

Columns and labels:
[1] = tested on: transiently suspended DLD-1 cells; experiment: Apoptosis (annexin V) of transiently suspended cells allowed to readhere; format: cell-based
Protocol: The transiently suspended cells were lysed and allowed to bind to DNA oligonucleotides, containing the NF-κB consensus binding site, that were immobilized to 96-well plates. NF-κB protein bound to the oligonucleotides was detected by an antibody to the p65 subunit that only recognized p65 that is bound to DNA. The positive control was HeLa cells that were stimulated with TNFα A control was performed using excess free NF-κB oligonucleotides (Competitor). […] NF-κB binding activity was determined by the TransAM assay as in FIG. 5A. […] The data shown represent typical results of three separate experiments. […] An immunoblot for COX-2 was performed.
(§1) Single cell suspensions were plated at 100,000 cells per well in 24-well plates in media containing DMSO, BAY 11-7082, BAY 11-7085, or MG-132 for 8-24 hours in an incubator. Alternatively, DMSO, BAY 11-7082, BAY 11-7085, or MG-132 were added to cells that were confluent and adherent for several days. The nonadherent cells were aspirated off with the media and spun for 3 minutes at 2,000 rpm in 15 ml polypropylene tubes. The adherent cells were washed twice with PBS, dispersed in trypsin, and spun down for 3 minutes at 2,000 rpm in 15 ml polypropylene tubes. The nonadherent and adherent cells were resuspended in 1× binding buffer (10 mM HEPES/NaOH, pH 7.4, 140 mM NaCl, and 2.5 mM CaCl2) to a final concentration of 10^6 cells/ml. 100 μl of the cell solution were transferred to a 5 ml culture tube and incubated with 5 μl of annexin V-FITC-conjugated monoclonal antibody (Pharmingen) and 10 μl of propidium iodide (from a 50 μg/ml stock solution made in PBS) in the dark at 25° C. for 15 minutes. 400 μl of binding buffer was added to each tube and the cells were analyzed by flow cytometry immediately. The percent of apoptosis was determined as the percent of annexin V-positive, propidium iodide-negative cells of the total cells counted.
Since trypsin can activate protease-activated receptor-2 in colon cancer cell lines, which then results in increased cell proliferation, (Darmoul et al., 2001) NF-κB activation was determined in adherent and confluent DLD-1, HCT-116, Caco-2 and HT-29 cells that were removed from plastic dishes by trypsin or scraping. […] To determine whether the transient activation of NF-κB caused by cell readhesion would render all of the colon cancer cells tested more susceptible to BAY 11-7085-induced apoptosis, DLD-1, HCT-116, Caco-2 and HT-29 colon cancer cell lines were transiently suspended, treated with BAY 11-7085 and allowed to readhere.

arthritis = conditions: Pierce et al., 1997; cited from earlier work
[2] = tested on: HCT-116 colon cancer cell line; experiment: Cell proliferation assay (crystal violet, 590 nm); format: cell-based
Protocol: (§2) DLD-1, HCT-116, and HT-29 colon cancer cell lines were obtained from the ATCC collection and were cultured in Dulbecco's Modification of Eagle's Medium supplemented with 10% fetal bovine serum, glutamine, penicillin, and streptomycin. 293 cells stably transfected with COX-2 (293-COX-2) under the control of a ponasterone sensitive promoter were cultured in Dulbecco's Modification of Eagle's Medium supplemented with 10% fetal bovine serum, 400 μg/ml of zeocin, 400 μg/ml of G418, glutamine, penicillin, and streptomycin. For induction of COX-2 protein expression, 293-COX-2 cells were cultured for 48 hours in media supplemented with 1 μg/ml of ponasterone. All cells were cultured at 37° C. in a humidified incubator with a 5% CO2 atmosphere.
(§3) For the cell proliferation assay, cells were dispersed and plated at 40,000 cells/well in 96-well dishes. At various days in culture, the cells were gently washed twice with 100 μl/well of ice-cold blocking buffer (1% radioimmunoassay grade BSA in PBS) and twice with 100 μl/well of ice-cold PBS. The cells were fixed for 10 min in 100% ice-cold methanol (100 μl/well), then allowed to air-dry. The cells were stained with 100μl/well of 0.1% crystal violet in H2O for 10 minutes, then washed gently four times with dd H20 and four times with PBS. The plates were then air-dried completely. The stained cells were then solubilized in 1% sodium deoxycholate, and the plates read at 590 nm in a spectrophotometer. The absorption at 590 nm is proportional to the number of attached cells.

[3] = tested on: DLD-1 colon cancer cell line; experiment: Cell proliferation assay (crystal violet, 590 nm); format: cell-based
Protocol: as §2, §3

JNK/SAPK and p38 = conditions: Pierce et al., 1997; cited from earlier work
adherent HT-29 cells = experiment: Apoptosis assay (annexin V-FITC / propidium iodide flow cytometry), adherent cells; format: cell-based; conditions: for level of apoptosis (annexin V-positive, propidium iodide-negative cells): doses up to 20 μM (MG-132 20 μM), 24 hours
Protocol: The data points represent the average percent of annexin V-positive, propidium iodide-negative cells (of the total cells counted) from triplicate experiments. The error bars represent the standard error of the means. […] The results shown are a graphic representation of individual flow cytometry results expressed as the percentage of cells that were annexin V-positive of those that excluded propidium iodide. […] An immunoblot of the lysates for cleaved PARP was performed. Each lane represents equal total protein concentrations. […] The cells were allowed to adhere to plastic dishes for 1 hour after which they were washed gently in PBS and stained with crystal violet. The crystal violet stained cells were solubilized in deoxycholate and the absorbance detected in a spectrophotometer at 590 nm. The adherent cells were expressed as a fraction of the controls Each data point represents the average of triplicate experiments and the error bars the standard errors of the means.
as §1

[4] = summary statement, concentration not given
[5] = HT-29, increasing concentrations, 8 hours, 24 h

Cc1ccc(S(=O)(=O)/C=C/C#N)cc1 [BAY 11-7082, (2E)-3-(tolysulfonyl)-2-propenenitrile]
share of transiently suspended, readhering cells that became apoptotic [1]: vast majority | effect on NF-κB and arthritis in rodent models (arthritis): inhibit NF-κB and arthritis in rodent models | inhibition of growth of cancer cell line [2, 4]: inhibits growth | inhibition of growth of cancer cell line [3, 4]: inhibits growth | effect on JNK/SAPK and p38 (JNK/SAPK and p38): activate JNK/SAPK and p38 | level of apoptosis (annexin V-positive, propidium iodide-negative cells) (adherent HT-29 cells; adherent HT-29): caused an increase in the level of apoptosis

CC(C)(C)c1ccc(S(=O)(=O)/C=C/C#N)cc1 [BAY 11-7085, (2E)-3-[4-(tertiarybutylphenyl)sulfonyl]-2-propenenitrile]
in vitro apoptotic threshold during readhesion [1]: > 20 µM | share of transiently suspended, readhering cells that became apoptotic [1]: vast majority | BAY 11-7085-induced apoptosis during readhesion ([1]; transiently suspended, treated, allowed to readhere 8 hours): showed the same propensity for BAY 11-7085-induced apoptosis | effect on NF-κB and arthritis in rodent models (arthritis): inhibit NF-κB and arthritis in rodent models | inhibition of cell proliferation ([2]; 10 μM, cultured 8 days): greatly inhibited cell proliferation | inhibition of cell proliferation ([3]; 10 μM, cultured 8 days): greatly inhibited cell proliferation | effect on JNK/SAPK and p38 (JNK/SAPK and p38): activate JNK/SAPK and p38 | percentage of apoptosis in the non-adherent cell fraction at high vs lower concentrations (adherent HT-29 cells; HT-29, 50 and 100 μM, cells annexin V and propidium iodide positive (necrotic)): decreased | percentage of apoptotic cells among cells that became non-adherent (adherent HT-29 cells; [5]): majority; also recorded: predominantly apoptotic | percentage of apoptotic cells among cells that remained adherent (adherent HT-29 cells; [5]): only a minority | level of apoptosis (annexin V-positive, propidium iodide-negative cells) (adherent HT-29 cells; adherent HT-29): relatively greater for MG-132 than BAY 11-7085; also recorded: caused an increase in the level of apoptosis | apoptosis of adherent cell monolayers compared with transiently suspended cells (adherent HT-29 cells; adherent HT-29, even the highest doses (10-100 μM)): only a relatively small degree of apoptosis
